Data as given in patent US6855512B2, “Methods for identifying inhibitors of cytochrome P450RAI” (Allergan, Inc., priority 2000, dated 2005).

target: T1, P450RAI-1 (Homo sapiens, UniProt O43174); assay: P450RAI-1 cell-based inhibitor assay (intact HeLa); details: read-out: P450RAI INHIBITION DATA INTACT HELA IC50
T1 construct: expressed in transfected cells; host or cells: HeLa (stably transfected, hygromycin selection)
T1 sequence (O43174 1-497): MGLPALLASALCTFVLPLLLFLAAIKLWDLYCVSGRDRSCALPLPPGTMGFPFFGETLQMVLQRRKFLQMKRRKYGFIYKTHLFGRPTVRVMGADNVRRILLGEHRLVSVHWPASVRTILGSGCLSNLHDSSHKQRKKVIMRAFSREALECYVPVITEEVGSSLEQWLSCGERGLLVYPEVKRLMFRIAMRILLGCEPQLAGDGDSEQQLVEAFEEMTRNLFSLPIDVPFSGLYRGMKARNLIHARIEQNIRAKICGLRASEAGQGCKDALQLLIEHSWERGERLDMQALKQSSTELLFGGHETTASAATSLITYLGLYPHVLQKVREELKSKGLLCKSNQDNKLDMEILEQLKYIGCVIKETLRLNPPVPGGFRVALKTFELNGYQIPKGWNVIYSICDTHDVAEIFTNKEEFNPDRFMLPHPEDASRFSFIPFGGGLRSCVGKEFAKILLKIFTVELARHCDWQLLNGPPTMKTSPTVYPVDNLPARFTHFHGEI
Procedure: P450RAI-1 Cell-Based Inhibitor Assay:
P450RAI-1 stably transfected HeLa cells are maintained in […] tissue culture dishes in Modified Eagle's Medium (MEM) containing 10% Fetal Bovine Serum (FBS) and 100 μg/ml hygromycin. Exponentially growing cells are harvested by incubating in trypsin. Cells are then washed with 1× Phosphate Buffered Saline (PBS) and plated in a 48-well plate at 5×10^5 cells in 0.2 ml MEM medium containing 10% FBS and 0.05 μCi [^3H]-RA in the presence or absence of increasing concentrations of the test compounds. The compounds are diluted in 100% DMSO and then added in triplicate wells at either 10, 1 or 0.1 μM final concentration. As a positive control for RA metabolism inhibition, cells are also incubated with ketoconazole at 100, 10 and 1 μM. Cell are incubated for 3 hours at 37° C. […] The water soluble radioactivity is quantified using β-scintillation counter. IC50 values represent the concentration of inhibitor required to inhibit all-trans-RA metabolism by 50 percent and are derived manually from log-transformed data.

IC50 [µM] | Structure (SMILES)
0.6 | CC1(C)CCSc2ccc(C#Cc3ccc(CC(=O)O)cc3)cc21 [Compound 202]
0.62 | CC1(C)CC(C)(C)c2cc(C(=O)Nc3ccc(C(=O)O)c(F)c3)cc(Cl)c2O1 [Compound 203]
0.7 | CC1(C)CC(C)(C)c2cc(C(=O)Nc3ccc(C(=O)O)c(F)c3)cc(C3CC3)c2O1 [Compound 204]
1.8 | CCC1(CC)CC(C)(C)c2cc(C(=O)Nc3ccc(C(=O)O)c(F)c3)cc(Br)c2O1 [Compound 206]
1 | CC1(C)CCCc2ccc(C#Cc3ccc(C(=O)O)cc3)cc21 [Compound 208]
7 | CC1=C(/C=C/C#Cc2ccc(C(=O)O)cc2)C(C)(C)CCC1(C)C [Compound 212]
6.2 | CC1(C)CCSc2ccc(C#Cc3ccc(C(=O)O)cc3)cc21 [Compound 215]
6.3 | CC1=C(/C=C/C#Cc2ccc(C(=O)O)cc2)C(C)(C)CCC1 [Compound 217]
> 10 | CCOc1c(I)cc(C(=O)Nc2ccc(C(=O)O)c(F)c2)cc1C(C)(C)C [Compound 222]
5.5 | CC1(C)CC(C)(C)c2cc(C(=O)Nc3ccc(C(=O)O)c(F)c3)cc(-c3ccccc3)c2O1 [Compound 224]
1.3 | Cc1cc(C(=O)Nc2ccc(C(=O)O)cc2)cc2c1OC(C)(C)CC2(C)C [Compound 227]
6 | CC1(C)CC(C)(C)c2cc(C(=O)Nc3ccc(C(=O)O)c(F)c3)ccc2O1 [Compound 228]
4.2 | CC1(C)CCC(O)c2ccc(C#Cc3ccc(C(=O)O)cc3)cc21 (stereo not drawn) [Compound 232]
4.7 | COc1ccc(-c2ccc3cc(C(=O)O)ccc3c2)cc1C12CC3CC(CC(C3)C1)C2 [Compound 234]
7 | CC(C)(C)c1cc(C#Cc2ccc(C(=O)O)cc2)cc(C(C)(C)C)c1O [Compound 235]
6.8 | CC1(C)CCC(C)(C)c2cc(C(=O)Nc3ccc(C(=O)O)c(F)c3)ccc21 [Compound 237]
3 | CC1(C)CCSc2ccc(C#Cc3ccc(C(=O)O)s3)cc21 [Compound 240]
5.5 | CC1(C)CCC(C)(C)c2cc(-c3ccc4cc(C(=O)O)ccc4c3)ccc21 [Compound 241]

Further lines, the molecule ahead of its results:

Structure (SMILES) | IC50 [µM]
CC1(C)CC(C)(C)c2cc(C(=O)Nc3ccc(C(=O)O)c(F)c3)cc(C(F)(F)F)c2O1 [Compound 205] | 1
CC(C)(C)c1cc(C#Cc2ccc(C(=O)O)cc2)cc(Cl)c1O [Compound 209] | 1.7
COc1ccc(C#Cc2ccc(C(=O)O)cc2)cc1C12CC3CC(CC(C3)C1)C2 [Compound 214] | 1.9
CC1(C)CCC(C)(C)c2cc(C#Cc3ccc(C(=O)O)cc3)ccc21 [Compound 216] | 3.3
CC1(C)CCCc2cc(C#Cc3ccc(C(=O)O)cc3)ccc21 [Compound 218] | 3.4
CC1=C(/C=C/C#Cc2ccc(C(=O)O)cc2)C(C)(C)CCS1 [Compound 219] | 3.2
Cc1cc(C(=O)Nc2ccc(C(=O)O)c(F)c2)cc2c1OC(C)(C)CC2(C)C [Compound 220] | 1
CC1(C)CC(C)(C)c2cc(C(=O)Nc3ccc(C(=O)O)c(F)n3)cc(Cl)c2O1 [Compound 221] | > 10
CCOc1c(Br)cc(C(=O)Nc2ccc(C(=O)O)c(F)c2)cc1C(C)(C)C [Compound 223] | > 10
CC1(C)CCOc2c(Br)cc(C(=O)Nc3ccc(C(=O)O)c(F)c3)cc21 [Compound 225] | > 10
COc1cc(C(=O)Nc2ccc(C(=O)O)c(F)c2)cc2c1OC(C)(C)CC2(C)C [Compound 226] | > 10
CC1=C(/C=C/C#Cc2ccc(C(=O)O)c(F)c2)C(C)(C)CCC1 [Compound 229] | 1.6
CC1(C)CCC(C)(C)c2cc(C#Cc3ccc(C(=O)O)c(F)c3)ccc21 [Compound 230] | 5.1
CC1(C)CC(C)(C)c2cc(C(=O)Oc3ccc(C(=O)O)cc3)ccc2O1 [Compound 231] | 4.1
O=C(O)c1ccc2cc(-c3ccc(O)c(C45CC6CC(CC(C6)C4)C5)c3)ccc2c1 [Compound 233] | 1.3
CC1(C)CCSc2ccc(C#Cc3ccc(C(=O)O)cn3)cc21 [Compound 238] | 7.2
CC1(C)CCC(C)(C)c2cc(C(=O)/C=C/c3ccc(C(=O)O)cc3)ccc21 [Compound 242] | 5.8
CC1(C)CCC(C)(C)c2cc(C(=O)Oc3ccc(C(=O)O)cc3)ccc21 [Compound 243] | 7.4
CC1=C(/C=C/C#Cc2ccc(C(=O)O)cn2)C(C)(C)CCC1 [Compound 244] | 5.1
CC1=C(/C=C/C#Cc2ccc(C(=O)O)s2)C(C)(C)CCC1 [Compound 245] | 3.3
CC1(C)CCC(C)(C)c2c1cc(O)c(C(=O)Nc1ccc(C(=O)O)cc1)c2F [Compound 246] | 3.1
